{
  "source": "paper PMC6235670",
  "about": "“An mTOR Signaling Modulator Suppressed Heterotopic Ossification of Fibrodysplasia Ossificans Progressiva” (Stem Cell Reports, 2018)",
  "key": {"[1]": {"tested_on": "mTOR signaling (p-S6)", "assay": "p-S6 western blotting during chondrogenic induction of FOP-iMSCs with activin A", "assay_type": "cell-based, human", "details": "1 μM", "procedure": "Western blotting. SDS- PAGE and blotting with whole-cell lysates were performed by standard procedures.\nProtein bands were detected with ECL Prime Western Blotting Detection Reagent (GE Healthcare) and visualized using BIO-RAD Molecular Imager® Chemi-DocTM XRS+ with Image LabTM software (Bio-Rad).\nAll data (relative intensity) were corrected by β-actin.\nAntibodies for western blotting and immunostaining.\nN ame Company Cat. No Concentration\nHuman Activin RIA/ALK-2 Antibody R&D Systems) AF637 1:100\nAnti-human Vimentin antibody Abcam ab16700 1:40\nCollagen I Antibody Novus NB600- 1:100\nAnti-rabbit IgG, HRP-linked Antibody Cell Signaling #7074 1:10000 […]\n2nd Goat anti-Rabbit IgG (H+L) Secondary Antibody, Invitrogen A-11008 1:100 antibody Alexa Fluor® 488 conjugate\nGoat anti-Rabbit IgG (H+L) Secondary Antibody, Invitrogen A-21428 1:500"}, "[2]": {"tested_on": "FOP-ACVR1 (R206H) conditional transgenic mice", "procedure": "MTOR s604 […]tt […]at […]\nCardiotoxin-induced HO model in human FOP-ACVR1 conditional transgenic mice. Female hFOP-ACVR1 conditional transgenic mice (Beard et al., 2006; Hino et al., 2017; Ohnishi et al., 2014; Yamada et al., 2013) (f5-6 offspring of chimeric mice, age- and body weight- matched between groups) were used between 16 and 20 weeks of age. Mice were administered 2 mg/mL Dox in their drinking water supplemented with 10 mg / mL sucrose to induce FOP-ACVR1. Cardiotoxin (9.1 µg/mouse, Latoxan) was injected into the right gastrocnemius muscle to initiate skeletal muscle injury and subsequent heterotopic bone formation (Chakkalakal et al., 2012). Test compounds (16% DMSO in 0.5 w/v% Methyl Cellulose 400) were intraperitoneally administered once a day, five times a week. Mice were analyzed three weeks after injection.\nFor X- ray images, mice were anesthetized with isoflurane (5% for induction, 2-3% for maintenance, Abbvie), immobilized and X-rayed using µFX-1000 (Fujifilm) or DX-50 (Faxitron Bioptics). µCT images were scanned using X-ray CT systems (inspeXio SMX-100CT, Shimadzu) and analyzed with TRI/3D-BON software (Ratoc System Engineering) according to the manufacturer's instructions. Four weeks after injection, the injected sites were harvested, fixed with 4% paraformaldehyde for 24 h, embedded in paraffin, and sectioned and stained with HE, von Kossa, Safranin O and anti-Collagen I antibody as previously described ( Hino et al., 2015; U med a […]\nBMP-7-induced HO model mice. […] Mice were analyzed 2 weeks after injection. […]\nHistological analysis of growth plates chondrocytes. Knee joints were obtained from BMP-7-injected and test compounds-administrated C57BL/6NJcl mice after 2 weeks treatment and fixed, paraffin-embedded, and sectioned and stained with Safranin O. The thickness of the proliferative and hypertrophic zones of the growth plate were measured using ImageJ software on images obtained using a Keyence microscope (Keyence A merica). […]"}},
  "data": [
    {"compound": "FC(F)(F)c1ccc(/C=C/c2nc(COc3ccc(CCCCn4ccnn4)cc3)co2)cc1", "note": "[TAK 165, mubritinib]", "values": [
      {"measurement": "p-S6 after 24-hr stimulation", "setting": "[1]; 24 hr", "value": "no effects"},
      {"measurement": "p-S6 after 7 days of stimulation", "setting": "[1]; 7 days", "value": "dramatically decreased"},
      {"measurement": "body weight change compared with vehicle", "setting": "[2]; 5 mg/kg i.p.", "value": "No apparent differences"},
      {"measurement": "von Kossa or COL1 staining of CTX-injected site", "setting": "[2]; 5 mg/kg i.p.", "value": "less positive staining"},
      {"measurement": "heterotopic ossification (heterotopic bone volume)", "setting": "[2]; 5 mg/kg i.p. once daily, five times a week, 3 weeks after CTX", "value": "significantly suppressed"}
    ]}
  ]
}
